Source: patent publication US20260274814A1, “THIENYL COMPOUNDS FOR THE TREATMENT OF A CENTRAL NERVOUS SYSTEM DISEASE OR DISORDER” (Coreterra Therapeutics, Inc., priority 2023, published 2026)
Structures can show the parent of a compound that is named as a salt. Where two headings read alike, the source gives them in different places.

Tested on: mice
Assay: Neuropharmacological Assay (SmartCube): automated behavioral signature of compound-treated mice compared with a database of reference drug classes
Format: in vivo
Details: for minimal effective dose: Mus musculus, ip, read-out: MED; for minimal effective dose / MED: minimal effective dose: dose having 45% or more total activity in SmartCube, i.p., that dose is shown
Summary of the method: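 Dose-response work typically spanned 0.3–10 mpk, widened or narrowed to obtain a full curve, with i.p. administration 15 min pre-test. MED is defined as the dose producing ≥45% total SmartCube activity; single-dose entries list the tested dose.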

[1] = SmartCube class probability, 3.0 mg/kg i.p., 15 min before test
[2] = SmartCube class probability, 3.0 mg/kg i.p., 15 min before test, hydrochloride, 3 mg/kg
[3] = SmartCube class probability, 3.0 mg/kg i.p., 15 min before test, 3 mg/kg
[4] = SmartCube probability class, 3.0 mg/kg dose, i.p. 15 min before the behavioral test
[5] = SmartCube probability class, 3.0 mg/kg dose, i.p. 15 min before the behavioral test, hydrochloride, 3 mg/kg

SMILES | AG [1] | AN [1] | AP [1] | AX [1] | CE [1] | HL [1] | MS [1] | PS [1] | SH [1] | AD [1] | AD [4] | AG [4] | AN [4] | AP [4] | AX [4] | CE [4] | HL [4] | MS [4] | PS [4] | SH [4] | further results
CNC1(C)CCc2c(C(F)(F)F)csc2C1.Cl (single isomer, unassigned) [Compound 261, N, 6-dimethyl-3-(trifluoromethyl)-5,7-dihydro-4H-benzothiophen-6-amine hydrochloride] | ND (^ <4%) | ND (^ <4%) | ND (^ <4%) | ND (^ <4%) | ND (^ <4%) | ND (^ <4%) | ND (^ <4%) | ND (^ <4%) | ND (^ <4%) |  |  |  |  |  |  |  |  |  |  |  | minimal effective dose (if only one dose tested): 3 mg/kg; AD [2]: +++ (≥49%); UK [2]: + (≥4%)
CNC1(C)CCc2c(C(F)(F)F)csc2C1.Cl (single isomer, unassigned) [Compound 262, N, 6-dimethyl-3-(trifluoromethyl)-5,7-dihydro-4H-benzothiophen-6-amine hydrochloride] | ND (^ <4%) | ND (^ <4%) | ND (^ <4%) | ND (^ <4%) | ND (^ <4%) | ND (^ <4%) | ND (^ <4%) | ND (^ <4%) | ND (^ <4%) |  |  |  |  |  |  |  |  |  |  |  | AD [2]: ++ (≥24%); UK [2]: ND (^ <4%); MED (if only one dose tested, hydrochloride): >3 mpk
CNC1CCc2scc(C3CCC3)c2C1 (single isomer, unassigned) [Compound 267, 3-cyclobutyl-N-methyl-4,5,6,7-tetrahydrobenzothiophen-5-amine hydrochloride] | ND (^ <4%) | ND (^ <4%) | ND (^ <4%) | ND (^ <4%) | ND (^ <4%) | ND (^ <4%) | ND (^ <4%) | ND (^ <4%) | ND (^ <4%) | ND (^ <4%) |  |  |  |  |  |  |  |  |  |  | minimal effective dose (if only one dose tested): > 3 mg/kg; UK [2]: + (≥4%)
CNC1CCc2scc(C3CCC3)c2C1 (single isomer, unassigned) [Compound 268, 3-cyclobutyl-N-methyl-4,5,6,7-tetrahydrobenzothiophen-5-amine hydrochloride] | ND (^ <4%) | ND (^ <4%) | ND (^ <4%) | ND (^ <4%) | ND (^ <4%) | ND (^ <4%) | ND (^ <4%) | ND (^ <4%) | ND (^ <4%) | ND (^ <4%) |  |  |  |  |  |  |  |  |  |  | UK [2]: ND (^ <4%); MED (if only one dose tested): >3 mpk
CC1(N2CCCC2)CCc2ccsc2C1 (single isomer, unassigned) [Compound 275, 1-(6-methyl-4,5,6,7-tetrahydrobenzo[b]thiophen-6-yl)pyrrolidine] | ND (^ <4%) | ND (^ <4%) | ND (^ <4%) |  | ND (^ <4%) | ND (^ <4%) | ND (^ <4%) |  | ND (^ <4%) | ND (^ <4%) |  |  |  |  |  |  |  |  |  |  | minimal effective dose (if only one dose tested): 3 mg/kg; UK [1]: ND (^ <4%); AX [3]: ND (^ <4%); PS [3]: ++++ (≥74%)
CC1(N2CCCC2)CCc2ccsc2C1 (single isomer, unassigned) [Compound 276, 1-(6-methyl-4,5,6,7-tetrahydrobenzo[b]thiophen-6-yl)pyrrolidine] | ND (^ <4%) | ND (^ <4%) | ND (^ <4%) |  | ND (^ <4%) | ND (^ <4%) | ND (^ <4%) |  | ND (^ <4%) | ND (^ <4%) |  |  |  |  |  |  |  |  |  |  | UK [1]: ND (^ <4%); AX [3]: ++++ (≥74%); PS [3]: ND (^ <4%); MED (if only one dose tested): 3 mpk
NC1CCc2scc(C3CC3)c2C1 (single isomer, unassigned) [Compound 277, 3-cyclopropyl-4,5,6,7-tetrahydrobenzothiophen-5-amine hydrochloride] | ND (^ <4%) | ND (^ <4%) | ND (^ <4%) | ND (^ <4%) | ND (^ <4%) | ND (^ <4%) | ND (^ <4%) | ND (^ <4%) | ND (^ <4%) | ND (^ <4%) |  |  |  |  |  |  |  |  |  |  | minimal effective dose (if only one dose tested): > 3 mg/kg; UK [1]: + (≥4%)
NC1CCc2scc(C3CC3)c2C1 (single isomer, unassigned) [Compound 278, 3-cyclopropyl-4,5,6,7-tetrahydrobenzothiophen-5-amine hydrochloride] |  |  |  |  |  |  |  |  |  | ND (^ <4%) |  |  |  |  |  |  |  |  |  |  | UK [1]: + (≥4%); MED (if only one dose tested): >3 mpk
CCc1csc2c1CC(N)CC2 (single isomer, unassigned) [Compound 279, 3-ethyl-4,5,6,7-tetrahydrobenzothiophen-5-amine hydrochloride] |  |  |  |  |  |  |  |  |  |  | ND (^ <4%) | ND (^ <4%) | ND (^ <4%) | ND (^ <4%) | ND (^ <4%) | ND (^ <4%) | ND (^ <4%) | ND (^ <4%) | ND (^ <4%) | ND (^ <4%) | minimal effective dose (if only one dose was tested): 3 mg/kg; UK [5]: ++ (≥24%)
CCc1csc2c1CC(N)CC2 (single isomer, unassigned) [Compound 280, 3-ethyl-4,5,6,7-tetrahydrobenzothiophen-5-amine hydrochloride] |  |  |  |  |  |  |  |  |  |  | ND (^ <4%) | ND (^ <4%) | ND (^ <4%) | ND (^ <4%) | ND (^ <4%) | ND (^ <4%) | ND (^ <4%) | ND (^ <4%) | ND (^ <4%) | ND (^ <4%) | UK [5]: +++ (≥49%); MED (if only one dose was tested): 3 mpk
CC1(N)CCc2sccc2C1 (single isomer, unassigned) [Compound 281, 5-methyl-4,5,6,7-tetrahydrobenzo[b]thiophen-5-amine hydrochloride] |  |  |  |  |  |  |  |  |  |  | ++++ (≥74%) | ND (^ <4%) | ND (^ <4%) |  |  | ND (^ <4%) | ND (^ <4%) | ND (^ <4%) | ND (^ <4%) | ND (^ <4%) | minimal effective dose (if only one dose was tested): 3 mg/kg; UK [4]: ND (^ <4%); AP [5]: + (≥4%); AX [5]: + (≥4%)
CC1(N)CCc2sccc2C1 (single isomer, unassigned) [Compound 282, 5-methyl-4,5,6,7-tetrahydrobenzo[b]thiophen-5-amine hydrochloride] |  |  |  |  |  |  |  |  |  |  | ++++ (≥74%) | ND (^ <4%) | ND (^ <4%) |  |  | ND (^ <4%) | ND (^ <4%) | ND (^ <4%) | ND (^ <4%) | ND (^ <4%) | UK [4]: ND (^ <4%); AP [5]: ND (^ <4%); AX [5]: ND (^ <4%); MED (if only one dose was tested): 3 mpk
CC1(N2CCCC2)CCc2sccc2C1.Cl (single isomer, unassigned) [Compound 283, 1-(5-methyl-4,5,6,7-tetrahydrobenzo[b]thiophen-5-yl)pyrrolidine hydrochloride] |  |  |  |  |  |  |  |  |  |  | ND (^ <4%) | ND (^ <4%) | ND (^ <4%) | ND (^ <4%) | ND (^ <4%) | ND (^ <4%) | ND (^ <4%) | ND (^ <4%) | ND (^ <4%) | ND (^ <4%) | minimal effective dose (if only one dose was tested): 3 mg/kg; UK [5]: + (≥4%)
CC1(N2CCCC2)CCc2sccc2C1.Cl (single isomer, unassigned) [Compound 284, 1-(5-methyl-4,5,6,7-tetrahydrobenzo[b]thiophen-5-yl)pyrrolidine hydrochloride] |  |  |  |  |  |  |  |  |  |  | ND (^ <4%) | ND (^ <4%) | ND (^ <4%) | ND (^ <4%) | ND (^ <4%) | ND (^ <4%) | ND (^ <4%) | ND (^ <4%) | ND (^ <4%) | ND (^ <4%) | UK [5]: ++ (≥24%); MED (if only one dose was tested): 3 mpk
CNC1COc2scc(C(F)(F)F)c2C1 (single isomer, unassigned) [Compound 289, N-methyl-5-(trifluoromethyl)-3,4-dihydro-2H-thieno[2,3-b]pyran-3-amine hydrochloride] |  |  |  |  |  |  |  |  |  |  | ND (^ <4%) | ND (^ <4%) | ND (^ <4%) | ND (^ <4%) | ND (^ <4%) | ND (^ <4%) | ND (^ <4%) | ND (^ <4%) | ND (^ <4%) | ND (^ <4%) | minimal effective dose (if only one dose was tested): > 3 mg/kg; UK [4]: + (≥4%)
CNC1COc2scc(C(F)(F)F)c2C1 (single isomer, unassigned) [Compound 290, N-methyl-5-(trifluoromethyl)-3,4-dihydro-2H-thieno[2,3-b]pyran-3-amine hydrochloride] |  |  |  |  |  |  |  |  |  |  | ND (^ <4%) |  |  |  |  |  |  |  |  |  | UK [4]: + (≥4%); MED (if only one dose was tested): >3 mpk
